The record followed here is patent US7297705B2, “Azaindolylalkylamine derivatives as 5-hydroxytryptamine-6 ligands” (Wyeth, priority 2001, dated 2007).

pKi: −log10 of the molar value.

T1 sequence (P50406 whole entry): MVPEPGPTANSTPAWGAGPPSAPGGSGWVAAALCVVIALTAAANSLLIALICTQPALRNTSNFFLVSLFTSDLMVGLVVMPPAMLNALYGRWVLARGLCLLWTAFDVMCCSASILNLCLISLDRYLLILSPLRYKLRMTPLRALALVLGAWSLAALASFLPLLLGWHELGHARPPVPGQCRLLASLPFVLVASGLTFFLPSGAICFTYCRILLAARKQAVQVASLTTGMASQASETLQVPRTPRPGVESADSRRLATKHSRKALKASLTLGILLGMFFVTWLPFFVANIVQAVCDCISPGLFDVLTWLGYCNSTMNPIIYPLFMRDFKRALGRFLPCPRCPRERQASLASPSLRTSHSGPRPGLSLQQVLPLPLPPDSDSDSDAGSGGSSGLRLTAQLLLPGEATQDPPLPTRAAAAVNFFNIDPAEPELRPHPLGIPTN

One experiment has as its target T1, human cloned 5-HT6 receptors (Homo sapiens, UniProt P50406).
T1 construct: expressed in transfected cells; host or cells: Hela cells
Description: 5-HT6 binding affinity, [3H]-LSD displacement on membranes of Hela cells expressing human cloned 5-HT6 receptors.
Conditions: not given
The method, then: Comparative Evaluation of 5-HT6 Binding Affinity of Test Compounds
The affinity of test compounds for the serotonin 5-HT6 receptor is evaluated in the following manner. Cultured Hela cells expressing human cloned 5-HT6 receptors are harvested and centrifuged at low speed (1,000×g) for 10.0 min to remove the culture media. The harvested cells are suspended in half volume of fresh physiological phosphate buffered saline solution and recentrifuged at the same speed. This operation is repeated. The collected cells are then homogenized in ten volumes of 50 mM Tris.HCl (pH 7.4) and 0.5 mM EDTA. The homogenate is centrifuged at 40,000×g for 30.0 min and the precipitate is collected. The obtained pellet is resuspended in 10 volumes of Tris.HCl buffer and recentrifuged at the same speed. The final pellet is suspended in a small volume of Tris.HCl buffer and the tissue protein content is determined in aliquots of 10-25 μl volumes. Bovine Serum Albumin is used as the standard in the protein determination according to the method described in Lowry et al., J. Biol. Chem., 193:265 (1951). The volume of the suspended cell membranes is adjusted to give a tissue protein concentration of 1.0 mg/ml of suspension. The prepared membrane suspension (10 times concentrated) is aliquoted in 1.0 ml volumes and stored at −70° C. until used in subsequent binding experiments.
The reaction is allowed to proceed in the dark for 120 min at room temperature, at which time, the bound ligand-receptor complex is filtered off on a 96 well unifilter with a Packard Filtermate® 196 Harvester. The bound complex caught on the filter disk is allowed to air dry and the radioactivity is measured in a Packard TopCount® equipped with six photomultiplier detectors, after the addition of 40.0 μl Microscint®-20 scintillant to each shallow well. The unifilter plate is heat-sealed and counted in a PackardTopCount® with a tritium efficiency of 31.0%.
Binding in the presence of varying concentrations of test compound is expressed as a percentage of specific binding in the absence of test compound. The results are plotted as log % bound versus log concentration of test compound. […] A linear regression line of data points is plotted, from which the IC50 value is determined and the Ki value is determined based upon the following equation: Ki=IC50/(1+L/KD) where L is the concentration of the radioactive ligand used and KD is the dissociation constant of the ligand for the receptor, both expressed in nM.
Take `Cc1cc(S(=O)(=O)n2cc(CCN(C)C)c3cccnc32)c(C)cc1Cl` [Example 146]: the pKi (in general, the Ki on a negative log10 scale, so that one unit is a factor of ten) is 7.50.

Consider `CN(C)CCc1cn(S(=O)(=O)c2ccccc2F)c2ncccc12` [Example 147], for which the pKi was 7.33. `CN(C)CCc1cn(S(=O)(=O)c2cccc(F)c2)c2ncccc12` [Example 148] showed a pKi of 7.55. As to `CN(C)CCc1cn(S(=O)(=O)c2ccc(Cl)s2)c2ncccc12` [Example 151], the pKi is 7.89. Turning to `CN(C)CCc1cn(S(=O)(=O)c2cc(Cl)sc2Cl)c2ncccc12` [Example 152], the pKi was 7.27. On the same count and under the same terms, as for `CN(C)CCc1cn(S(=O)(=O)c2c(Cl)nc3ccccn23)c2ncccc12` [Example 153], the figure is 7.24; as for `NCCc1cn(S(=O)(=O)c2c(Cl)nc3sccn23)c2ncccc12` [Example 154], 8.13.

Staying with this experiment, now noted: read-out: 5-HT6 Binding Ki.
Take `NCCc1cn(S(=O)(=O)c2c(Cl)nc3sc(Cl)cn23)c2ncccc12` [Example 158]: the pKi was 7.04.
